The results in this text go back to patent US4091206A, “Quinoxaline-1,4-dioxide derivatives” (Egyt Gyogyszervegyeszeti Gyar, priority 1974, dated 1978).

A short description of one data set: oral toxicity on mice. The note with it: mouse, in vivo. An excerpt:
(§1) The fodder utilization factors determined for the compounds according to the invention, furthermore the oral toxicity data of the novel compounds measured on mice are listed in Table 1. For the sake of comparison the respective data of some known compounds structurally related to those of formula I are also given.

The next data set has as its system pigs. Put plainly: weight gain increasing effect on pigs (fodder admixed with compound), fodder utilization factor. In kind it is in vivo. The conditions noted are these: fodder admixed with 50 mg./kg. of compound, index from feeding coefficient and percentage daily weight gain, control 50. As for the experimental part: When utilized as fodder additives, the new compounds according to the invention increase the weight gain and fodder utilization of pigs. The weight gain increasing effect of the compounds was tested on pigs as follows:
The animals were fed under the same conditions with fodders of the same amount and composition. In the test groups the animals received a fodder admixed with 50 mg./kg. of the compound to be tested, whereas no additive was admixed with the fodder in the control group.
The weight gain was measured daily, and the feeding coefficient (amount of consumed fodder resulting in a weight gain of 1 kg.) was calculated. The percentage daily weight gain was calculated by the formula [formula]
Since the rate of weight gain increasing effect depends on both the feeding coefficient and the percentage daily weight gain, and because of the actual fodder consumption and the time required to reach the slaughter weight are the important factors of economical animal husbandry, an index characteristic of the rate of weight gain increase was calculated from the above data by the equation [formula] The higher is the fodder utilization factor the more economic is the pig-breeding.
as §1

For `O=C(Cc1cccc2ccccc12)NN=Cc1c[n+]([O-])c2ccccc2[n+]1[O-]` [1-napthylmethyl, 2-(1'-Naphthyl-acetyl)-hydrazono-formyl-quinoxaline-1,4-dioxide], the LD50 – broadly, the dose expected to kill half of the subjects tested – in the data set “oral toxicity on mice” (po) turned out to be 13000 mg/kg. The Fodder utilization factor in the data set on pigs came out at 93.5.

Consider `O=C(NN=Cc1c[n+]([O-])c2ccccc2[n+]1[O-])c1ccncc1` [Example 4-pyridyl, 2-(Isonicotinoyl)-hydrazono-formyl-quinoxaline-1,4-dioxide], for which the LD50 in the data set “oral toxicity on mice” (oral, mice) is 12000 mg/kg. In addition, the Fodder utilization factor with pigs is 91.

`O=C(NN=Cc1c[n+]([O-])c2ccccc2[n+]1[O-])c1ccc([N+](=O)[O-])o1` [Example 5-nitrofuryl, 2-(5'-Nitro-2'-furanoyl)-hydrazono-formyl-quinoxaline-1,4-dioxide] gave an LD50 in the data set “oral toxicity on mice” (po) of 14000 mg/kg. The Fodder utilization factor with pigs was 91.

In the case of `CCCCCCC(=O)NN=Cc1c[n+]([O-])c2ccccc2[n+]1[O-]` [hexyl, 2-(Hexylcarbonyl-hydrazono-formyl)-quinoxaline-1,4-dioxide], in “oral toxicity on mice” (po), the LD50 amounted to 4000 mg/kg. Further, the Fodder utilization factor with pigs is 53.

`COC(=O)NN=Cc1c[n+]([O-])c2ccccc2[n+]1[O-]` [methoxy, 2-(Methoxycarbonyl-hydrazono-formyl)-quinoxaline-1,4-dioxide]: the LD50 in the data set “oral toxicity on mice” (oral, mice) is 4000 mg/kg. Further, in the data set on pigs, the Fodder utilization factor was 66.

In the case of `O=C(NN=Cc1c[n+]([O-])c2ccccc2[n+]1[O-])c1ccccc1` [phenyl, 2-(Benzoyl-hydrazono-formyl)-quinoxaline-1,4-dioxide], the LD50 in the data set “oral toxicity on mice” (oral, mice) was 4000 mg/kg. Further, the Fodder utilization factor with pigs was 66.
